Test results: the supplement of paper PMC11451515

Tested on: P12-Ichikawa
Assay: cell viability relative to DMSO control; higher = less cytotoxic
Conditions: 48 h
Procedure, shortened: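 Before seeding, each leukemia line was adapted for at least four passages in each medium. NOMO1 or SEM cells (500 cells/well) and P12-Ichikawa cells (1000 cells/well) went into 1536-well plates at 5 μl, then received library compounds in DMSO by pin dosing across 11 threefold concentrations, 47 μM to 0.79 nM. Readout was CellTiter-Glo One luminescence after 48 h at 37°C, and viability is given as a per-plate percentage of DMSO wells, with cell-free wells as background.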

[1] = HPLM + 10% dialyzed FBS, 0.000781 µM
[2] = HPLM + 10% dialyzed FBS, 0.00234 µM
[3] = HPLM + 10% dialyzed FBS, 0.00702 µM
[4] = HPLM + 10% dialyzed FBS, 0.0211 µM
[5] = HPLM + 10% dialyzed FBS, 0.0632 µM
[6] = HPLM + 10% dialyzed FBS, 0.19 µM
[7] = HPLM + 10% dialyzed FBS, 0.569 µM
[8] = HPLM + 10% dialyzed FBS, 1.71 µM
[9] = HPLM + 10% dialyzed FBS, 5.12 µM
[10] = HPLM + 10% dialyzed FBS, 15.4 µM
[11] = HPLM + 10% dialyzed FBS, 46.1 µM
[12] = RPMI 5 mM glucose + 10% FBS, 0.000781 µM
[13] = RPMI 5 mM glucose + 10% FBS, 0.00234 µM
[14] = RPMI 5 mM glucose + 10% FBS, 0.00702 µM
[15] = RPMI 5 mM glucose + 10% FBS, 0.0211 µM
[16] = RPMI 5 mM glucose + 10% FBS, 0.0632 µM
[17] = RPMI 5 mM glucose + 10% FBS, 0.19 µM
[18] = RPMI 5 mM glucose + 10% FBS, 0.569 µM
[19] = RPMI 5 mM glucose + 10% FBS, 1.71 µM
[20] = RPMI 5 mM glucose + 10% FBS, 5.12 µM
[21] = RPMI 5 mM glucose + 10% FBS, 15.4 µM
[22] = RPMI 5 mM glucose + 10% FBS, 46.1 µM
[23] = RPMI 5 mM glucose + 10% dialyzed FBS, 0.000781 µM
[24] = RPMI 5 mM glucose + 10% dialyzed FBS, 0.00234 µM
[25] = RPMI 5 mM glucose + 10% dialyzed FBS, 0.00702 µM
[26] = RPMI 5 mM glucose + 10% dialyzed FBS, 0.0211 µM
[27] = RPMI 5 mM glucose + 10% dialyzed FBS, 0.0632 µM
[28] = RPMI 5 mM glucose + 10% dialyzed FBS, 0.19 µM
[29] = RPMI 5 mM glucose + 10% dialyzed FBS, 0.569 µM
[30] = RPMI 5 mM glucose + 10% dialyzed FBS, 1.71 µM
[31] = RPMI 5 mM glucose + 10% dialyzed FBS, 5.12 µM
[32] = RPMI 5 mM glucose + 10% dialyzed FBS, 15.4 µM
[33] = RPMI 5 mM glucose + 10% dialyzed FBS, 46.1 µM

| SMILES | cell viability [1] [%] | cell viability [2] [%] | cell viability [3] [%] | cell viability [4] [%] | cell viability [5] [%] | cell viability [6] [%] | cell viability [7] [%] | cell viability [8] [%] | cell viability [9] [%] | cell viability [10] [%] | cell viability [11] [%] | cell viability [12] [%] | cell viability [13] [%] | cell viability [14] [%] | cell viability [15] [%] | cell viability [16] [%] | cell viability [17] [%] | cell viability [18] [%] | cell viability [19] [%] | cell viability [20] [%] | cell viability [21] [%] | cell viability [22] [%] | cell viability [23] [%] | cell viability [24] [%] | cell viability [25] [%] | cell viability [26] [%] | cell viability [27] [%] | cell viability [28] [%] | cell viability [29] [%] | cell viability [30] [%] | cell viability [31] [%] | cell viability [32] [%] | cell viability [33] [%] |
| --- | --- | --- | --- | --- | --- | --- | --- | --- | --- | --- | --- | --- | --- | --- | --- | --- | --- | --- | --- | --- | --- | --- | --- | --- | --- | --- | --- | --- | --- | --- | --- | --- | --- |
| NC\1=N\C(=O)N(\C=C1)[C@@H]2O[C@H](CO)[C@@H](O)[C@@H]2O | 26.1 | 22.9 | 9.22 | 8.83 | 4.99 | 6.11 | 6.14 | 4.49 | 3.27 | 2.43 | 0.778 | 14.9 | 15.4 | 9.94 | 5.41 | 3.93 | 3.94 | 3.63 | 2.08 | 1.73 | 1.04 | 0.402 | 20 | 16.6 | 11.1 | 10.5 | 7.45 | 6.15 | 7.46 | 5.67 | 3.34 | 3.72 | 1.87 |
| CN[C@H]1CCC2=CC(=C(OC)C(=C2C/3=C/C=C(OC)\C(=O)/C=C13)OC)OC | 107 | 113 | 104 | 12.9 | 19.9 | 11.1 | 11.2 | 8.53 | 9.25 | 7.37 | 3.31 | 113 | 118 | 102 | 15.9 | 22.2 | 13.3 | 9.95 | 9.19 | 7.3 | 6.54 | 2.29 | 119 | 118 | 102 | 21.1 | 33.4 | 19 | 15.6 | 11.3 | 9.48 | 8.81 | 4.1 |
| CC(C)N[C@@H]1CCn2c(=O)[nH]c3cccc(c32)[C@H]1O | 111 | 112 | 118 | 120 | 117 | 115 | 109 | 112 | 97.1 | 107 | 100 | 129 | 112 | 121 | 122 | 114 | 104 | 116 | 110 | 110 | 113 | 106 | 105 | 104 | 116 | 114 | 109 | 108 | 99.6 | 105 | 104 | 97.9 | 93.8 |
| Clc1ccc(-c2nc3sccn3c2/C=N/OCc2ccc(Cl)c(Cl)c2)cc1 | 114 | 109 | 107 | 112 | 108 | 103 | 104 | 106 | 101 | 99.9 | 98 | 111 | 113 | 118 | 102 | 113 | 108 | 110 | 110 | 98.5 | 96.5 | 98.9 | 114 | 110 | 101 | 110 | 110 | 100 | 102 | 101 | 91.3 | 101 | 102 |
| Cc1onc(-c2ccccc2Cl)c1C(=O)N[C@@H]1C(=O)N2[C@@H]1SC(C)(C)[C@@H]2C(=O)[O-] | 112 | 116 | 113 | 116 | 113 | 113 | 113 | 111 | 110 | 105 | 106 | 119 | 117 | 113 | 111 | 116 | 114 | 116 | 110 | 117 | 101 | 101 | 103 | 111 | 115 | 119 | 126 | 109 | 120 | 105 | 112 | 98.4 | 98.1 |
| C[C@H]1COC2=C3N1\C=C(C(O)=O)/C(=O)C3=CC(=C2N4CCN(C)CC4)F | 117 | 116 | 121 | 116 | 109 | 113 | 97.2 | 109 | 92.7 | 85.6 | 82.9 | 111 | 113 | 117 | 120 | 98.2 | 116 | 98.6 | 103 | 84.2 | 62.5 | 70.4 | 109 | 111 | 114 | 118 | 108 | 112 | 91.7 | 94.7 | 82.4 | 74.2 | 62.6 |
| CN[C@@H]1[C@@H](O)[C@@H](O[C@@H]2[C@@H](O)[C@H](O[C@H]3O[C@H](CN)[C@@H](O)[C@H](O)[C@H]3O)[C@@H](N)C[C@H]2NC(=O)[C@@H](O)CN)OC[C@]1(C)O | 123 | 131 | 124 | 122 | 128 | 120 | 126 | 113 | 110 | 108 | 108 | – | – | – | – | – | – | – | – | – | – | – | – | – | – | – | – | – | – | – | – | – | – |
| COc1cc(OC2CCN(C)CC2)ccc1Nc1ncc2c(n1)n(C1CCCC1)c(=O)n2C | 83.2 | 85.4 | 83 | 91.2 | 91.6 | 97.9 | 88.5 | 92.8 | 99.6 | 86.2 | 2.55 | 74.9 | 93.8 | 82.7 | 88.2 | 85.8 | 81.4 | 91.6 | 81.3 | 87.2 | 69.9 | 5.17 | 76.7 | 80.6 | 76.3 | 85.5 | 86.1 | 80.4 | 86.5 | 83 | 85.6 | 61.4 | 0.821 |
| CC1=C(C)C(=O)C(C(CCCCCC(=O)O)c2ccccc2)=C(C)C1=O (stereo not given) | 76.1 | 91.6 | 83.8 | 76.4 | 80.6 | 84.5 | 73.8 | 83.9 | 86.2 | 84.5 | 70.6 | 86 | 91.2 | 96.2 | 94.5 | 103 | 97.5 | 82.3 | 96.1 | 72.9 | 66.7 | 56.6 | 70.5 | 77.9 | 71.7 | 84.1 | 84.4 | 85.8 | 79.2 | 80.3 | 67.4 | 72 | 52.1 |
| COc1ccc(-c2ccc3ncc4c(c3c2)n(-c2ccc(N3CCNCC3)c(C(F)(F)F)c2)c(=O)n4C)cn1 | 99.5 | 92.5 | 79.1 | 74.1 | 72.5 | 48.5 | 48.9 | 40.1 | 30 | 4.22 | 3.22 | 81.7 | 73.2 | 72.3 | 64.2 | 59.4 | 34.7 | 22 | 8.29 | 6.08 | 4.14 | 4 | 86.1 | 91.5 | 63 | 65.8 | 60.9 | 47.1 | 34 | 5.19 | 5.18 | 4.63 | 3.63 |
| N[S+]([O-])(=O)C1=C(Cl)C=C2\N=C/N[S+]([O-])(=O)C2=C1 | 101 | 100 | 102 | 97.5 | 106 | 108 | 108 | 119 | 110 | 106 | 109 | 97.3 | 106 | 107 | 113 | 117 | 114 | 112 | 122 | 115 | 120 | 122 | 101 | 96.2 | 111 | 115 | 114 | 110 | 114 | 100 | 115 | 115 | 109 |
| Cc1ccccc1C(=O)c1ccc(Nc2ccc(Br)cc2N)cc1Cl | 117 | 122 | 119 | 104 | 114 | 118 | 114 | 114 | 105 | 98.6 | 51.5 | 117 | 122 | 121 | 110 | 119 | 108 | 117 | 113 | 111 | 108 | 53.7 | 117 | 121 | 127 | 119 | 122 | 118 | 117 | 111 | 105 | 89 | 35.5 |
| C[C@](O)(CS(=O)(=O)c1ccc(F)cc1)C(=O)Nc1ccc(C#N)c(C(F)(F)F)c1 | 97.6 | 115 | 110 | 120 | 115 | 115 | 124 | 119 | 118 | 114 | 107 | 104 | 110 | 112 | 109 | 111 | 108 | 114 | 110 | 126 | 119 | 105 | 102 | 118 | 126 | 130 | 122 | 120 | 132 | 120 | 130 | 113 | 101 |
| C[C@@H](Oc1cc(-c2cnn(C3CCNCC3)c2)cnc1N)c1c(Cl)ccc(F)c1Cl | 118 | 119 | 115 | 118 | 115 | 120 | 111 | 95.7 | 90.6 | 73.5 | 18.9 | 116 | 118 | 123 | 116 | 124 | 117 | 115 | 113 | 82.2 | 68.9 | 21.4 | – | – | – | – | – | – | – | – | – | – | – |
| CC(C)c1nc(CN(C)C(=O)N[C@H](C(=O)N[C@@H](Cc2ccccc2)C[C@H](O)[C@H](Cc2ccccc2)NC(=O)OCc2cncs2)C(C)C)cs1 | 91.9 | 87.4 | 87.2 | 102 | 103 | 92.1 | 78.4 | 78.2 | 83.9 | 85.8 | 89.6 | 87.2 | 86.5 | 87.7 | 84.2 | 92.4 | 92.6 | 77.2 | 90.1 | 81.5 | 79.8 | 88.2 | 85.3 | 79.8 | 89.4 | 83.4 | 92.6 | 87.2 | 70.8 | 82.2 | 77.9 | 82.8 | 82.3 |
| Cn1cnc2c(F)c(Nc3ccc(Br)cc3F)c(C(=O)NOCCO)cc21 | 88.4 | 101 | 96.6 | 11.1 | 102 | 91.9 | 91 | 85.7 | 87.2 | 86.3 | 81.2 | 84.5 | 92.6 | 96.7 | 13.6 | 92.3 | 82.7 | 80.1 | 78.2 | 75.5 | 74.2 | 73.1 | 91 | 98 | 101 | 26.2 | 97 | 93.5 | 83.8 | 89.1 | 91.8 | 86.6 | 81.4 |
